# From patent US20100240754A1, “UNSATURATED FATTY AMINO ACID DERIVATIVES AND USE THEREOF IN DERMAL COSMETOLOGY” (Pierre Fabre Demo-Cosmetique, priority 2007, published 2010)
# Legend:
# Assay type in all cases: cell-based, murine
# fibroblast line L929 = assay: Test of TBARS: lipid peroxidation after H2O2-Fe2+/Fe3+ stress; details: 400 μg/mL
# [1] = tested on: fibroblast cell line L929; assay: In vitro assay of intracellular OASes (H2DCF-DA probe) after H2O2/iron oxidative stress; details: dose 400 μg/mL; L929, H2O2/iron stress
# Description: We have set up a model for an in vitro study of oxidative stress induced by H2O2/iron, H2O2 which massively generates intracellular OASes by a chain reaction triggered by the oxidation of membrane lipids.
# This technique is based on the use of a fluorescent probe, 6-carboxy-2′, 7′ dichlorodihydrofluorescein diacetate, di(acetoxymethyl ester) (H2DCF-DA), which, once it has penetrated the cell, is deacetylated by the intracellular esterases then forming H2DCF. This product is oxidized by intracellular OASes into a highly fluorescent compound: 2′,7′-dichlorofluorescein, (DCF) (Suematsu M et al, 1996, Free Radicals Practical Approach, Punchard ed. P83-99).
# Cutaneous murine fibroblast cell line L929.
# The tested concentrations are non-cytotoxic concentrations. Cytoxicity was evaluated by the neutral red method, after incubation of the product for 3 hours.
# The reference anti-radical product is vitamin E or α-tocopherol (MW: 430.7) (SIGMA, ref.: T-1539).
# The mother solution is prepared at 400 mg/mL in DMSO and stored at −20° C. The pretreatment solution is prepared extemporaneously at 400 μg/mL in a culture medium without FCS.
# For evaluating unsaturated fatty amino acid derivatives, the dilutions are prepared in the culture medium extemporaneously for a range of concentrations of 0.02, 0.2, 2 and 20 ng/mL.
# The cells of the fibroblast line L929 are sown in microplates with 96 wells with a flat bottom in 100 μL of DMEM supplemented with 10% of FCS, and they are then incubated overnight at 37° C. in a humid atmosphere with 5% CO2.
# The dilutions of the products to be tested and of the reference molecule are conducted in culture mediums without FCS, and then deposited in 7 wells in an amount of 100 μL per well.
# The cells are then incubated for 3 hours at 37° C. in a humid atmosphere with 5% CO2.
# The cells are rinsed with PBS 1× in an amount of 100 μL per well. Next they are set to incubate for 30 min at 37° C. in a humid atmosphere with 5% CO2 and with 50 μL of H2DCF-DA probe at 5 μM.
# After 30 min in contact with the probe alone, the cells are incubated for 30 min at 37° C. in a humid atmosphere with […] with addition of 25 μL of H2O2 at 800 μM and 25 μL of 8 mM ferrous and ferric iron solution, in order to have final concentrations of 200 μM of H2O2 and 2 mM of ferrous and ferric iron.
# The cells are then rinsed with PBS 1× in an amount of 100 μL per well, and then incubated for 30 min at 37° C. in a humid atmosphere with 5% CO2 and with 100 μL of PBS 1×.
# These 1 h 30 minutes of incubation at 37° C. allow the intracellular esterases to deacetylate the H2DCF probe, oxidizable by intracellular OASes into DCF; a fluorescent compound, the formation of which is proportional to the amount of intracellular OASes.
# The fluorescence intensity is read with the cytofluorimeter at λexcitation=485 nm and λemission=530 nm. It reflects the amount of produced intracellular OASes.
# With the below ratio, it is possible to calculate for each concentration of tested product the % of protection against production of intracellular OASes (since the fluorescence intensity or FI expresses intracellular release of OASes).
# The values indicated in Table 3 are percentages of inhibition of intracellular OAS production following an exogenous oxidative stress, relatively to <> cells (100%) and to <> cells (0%).
# B16-F10 line = assay: Synthesis of melanin, colorimetric assay, basal and after alpha MSH stimulation; details: Mus musculus, alpha MSH-stimulated B16-F10, read-out: inhibition of melanogenesis
# Protocol: 6.1) The modulating effect of unsaturated fatty amino-acid derivatives on melanogenesis was analyzed. For this, a measurement of the synthesis of melanin by a colorimetric assay is carried out on a cell line of murine melanomas: the B16-F10 line.
# The effect of the products is investigated in a basal situation and after stimulating melanogenesis by a MSH for determining the depigmenting power.
# The level of extracellular and intracellular melanin is then measured by spectrophotometry at a wave length of 405 nm according to the procedure (Meun, Y. J. et al.). The amount of pigment is determined by a standard range of melanin and by analysis on the Microwin software package (Berthold Biotechnologies). An assay of total proteins is conducted for samples of intracellular melanin by the BCA-Copper method at 540 nm. The standard range is produced with a standard protein, BSA (Bovine Albumin Serum).
smiles,measurement,setting,value
"Cc1c(C)c2c(c(C)c1O)CC[C@@](C)(CCC[C@H](C)CCC[C@H](C)CCCC(C)C)O2 [Vitamin E, α-tocopherol, reference compound]","protection against lipid peroxidation, in words",fibroblast line L929,very effectively protects cell membranes
same,percentage of inhibition of intracellular OAS production (protection),[1],31%
"Oc1ccc(O)cc1 [hydroquinone, reference compound]",inhibition at 1 µg/mL,B16-F10 line; 1 μg/mL,~60%
"O=C1O[C@H]([C@@H](O)CO)C(O)=C1O [vitamin C, reference compound]",inhibition at 40 µg/mL,B16-F10 line; 40 μg/mL,~60%
